Results published in publication PMC4762448 (Journal of biomolecular screening, 2011).
Like-named read-outs stand apart in the source and are kept apart here.

Experiments:
[1] = molecular target: Ls-AChBP (Lymnaea stagnalis, UniProt P58154); settings: cited from earlier work
[2] = 125I-Bgt displacement assay; cited from earlier work
[3] = molecular target: T1, Ac-AChBP (Aplysia californica, UniProt Q8WSF8); assay: [3H] epibatidine competition scintillation proximity assay, Ac-AChBP; type: binding
T1 sequence (Q8WSF8 18-236 limits assumed): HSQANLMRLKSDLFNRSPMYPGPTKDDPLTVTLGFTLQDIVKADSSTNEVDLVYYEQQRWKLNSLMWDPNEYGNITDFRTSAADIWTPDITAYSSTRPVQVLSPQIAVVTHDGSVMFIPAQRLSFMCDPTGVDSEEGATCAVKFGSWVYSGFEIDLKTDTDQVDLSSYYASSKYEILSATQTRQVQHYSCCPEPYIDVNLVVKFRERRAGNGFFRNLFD

[4] = molecular target: T2, α7nAChR (Homo sapiens, UniProt P36544); assay: LGIC-CNiFER FRET calcium sensor assay in HEK cells, α7nAChR; type: cell-based
T2 sequence (P36544 23-502): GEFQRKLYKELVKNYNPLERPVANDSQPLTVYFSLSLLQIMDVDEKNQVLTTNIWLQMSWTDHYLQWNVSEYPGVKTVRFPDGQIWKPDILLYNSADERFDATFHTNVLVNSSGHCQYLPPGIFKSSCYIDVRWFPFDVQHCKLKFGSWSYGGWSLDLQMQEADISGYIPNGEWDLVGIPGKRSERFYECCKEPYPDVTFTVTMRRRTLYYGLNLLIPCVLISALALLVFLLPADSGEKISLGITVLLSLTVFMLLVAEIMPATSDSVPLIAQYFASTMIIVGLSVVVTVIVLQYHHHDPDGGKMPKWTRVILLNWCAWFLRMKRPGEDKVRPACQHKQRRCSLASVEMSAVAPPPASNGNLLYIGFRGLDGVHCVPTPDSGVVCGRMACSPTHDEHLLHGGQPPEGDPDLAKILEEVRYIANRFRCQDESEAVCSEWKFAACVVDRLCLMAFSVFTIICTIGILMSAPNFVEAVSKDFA

[5] = test system: AChBPs (Ls, Ac, and AcY55W); assay: [3H] epibatidine competition SPA, the three AChBPs together; type: binding; settings: 10 μM of each compound
[6] = molecular target: AcY55W-AChBP (Aplysia californica, UniProt Q8WSF8, Y72W); assay: [3H] epibatidine competition scintillation proximity assay, AcY55W-AChBP; type: binding
Sequence of AcY55W-AChBP (Q8WSF8 18-236 Y72W limits assumed): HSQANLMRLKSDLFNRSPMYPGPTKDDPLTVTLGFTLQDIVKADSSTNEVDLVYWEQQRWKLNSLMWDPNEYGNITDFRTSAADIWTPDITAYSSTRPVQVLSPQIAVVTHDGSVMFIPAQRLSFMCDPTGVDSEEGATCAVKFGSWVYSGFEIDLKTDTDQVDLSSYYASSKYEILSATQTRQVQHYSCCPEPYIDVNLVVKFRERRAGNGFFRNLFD

[7] = molecular target: T2, α7nAChR; type: cell-based
[8] = molecular target: T3, 5-HT3A (Homo sapiens, UniProt P46098); assay: LGIC-CNiFER FRET calcium sensor assay in HEK cells, 5-HT3A; type: cell-based; settings: control at 0.1 μM
T3 sequence (P46098 24-478): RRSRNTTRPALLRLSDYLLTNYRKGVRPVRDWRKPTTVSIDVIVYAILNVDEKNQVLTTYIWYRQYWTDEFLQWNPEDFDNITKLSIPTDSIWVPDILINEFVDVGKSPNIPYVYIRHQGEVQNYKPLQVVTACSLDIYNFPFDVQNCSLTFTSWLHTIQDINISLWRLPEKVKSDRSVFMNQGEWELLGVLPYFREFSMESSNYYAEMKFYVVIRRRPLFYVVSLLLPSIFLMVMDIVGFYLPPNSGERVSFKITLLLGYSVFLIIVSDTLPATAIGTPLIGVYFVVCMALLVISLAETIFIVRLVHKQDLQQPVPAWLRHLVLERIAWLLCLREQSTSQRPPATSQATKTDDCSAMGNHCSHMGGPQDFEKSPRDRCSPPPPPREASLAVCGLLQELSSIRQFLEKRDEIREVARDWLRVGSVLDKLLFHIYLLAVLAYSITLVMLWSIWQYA

[9] = molecular target: α1nAChR (Homo sapiens, UniProt P02708+Q07001); assay: LGIC-CNiFER membrane potential dye assay in HEK cells, α1nAChR; type: cell-based; settings: 0.1 µM
Sequence of α1nAChR (P02708 21-457): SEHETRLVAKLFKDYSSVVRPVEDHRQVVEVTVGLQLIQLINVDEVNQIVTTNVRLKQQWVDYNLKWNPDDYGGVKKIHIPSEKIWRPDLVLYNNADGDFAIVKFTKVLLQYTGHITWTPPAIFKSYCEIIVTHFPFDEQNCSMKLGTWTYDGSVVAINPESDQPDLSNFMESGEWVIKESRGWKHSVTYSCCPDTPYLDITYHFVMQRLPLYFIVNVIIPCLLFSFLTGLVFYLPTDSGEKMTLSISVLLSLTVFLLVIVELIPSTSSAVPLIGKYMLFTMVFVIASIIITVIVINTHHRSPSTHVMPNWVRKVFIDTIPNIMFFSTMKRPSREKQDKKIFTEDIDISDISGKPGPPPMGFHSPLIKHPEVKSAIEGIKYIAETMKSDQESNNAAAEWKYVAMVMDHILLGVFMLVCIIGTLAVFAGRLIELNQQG
Sequence of α1nAChR (P11230 24-501 partner): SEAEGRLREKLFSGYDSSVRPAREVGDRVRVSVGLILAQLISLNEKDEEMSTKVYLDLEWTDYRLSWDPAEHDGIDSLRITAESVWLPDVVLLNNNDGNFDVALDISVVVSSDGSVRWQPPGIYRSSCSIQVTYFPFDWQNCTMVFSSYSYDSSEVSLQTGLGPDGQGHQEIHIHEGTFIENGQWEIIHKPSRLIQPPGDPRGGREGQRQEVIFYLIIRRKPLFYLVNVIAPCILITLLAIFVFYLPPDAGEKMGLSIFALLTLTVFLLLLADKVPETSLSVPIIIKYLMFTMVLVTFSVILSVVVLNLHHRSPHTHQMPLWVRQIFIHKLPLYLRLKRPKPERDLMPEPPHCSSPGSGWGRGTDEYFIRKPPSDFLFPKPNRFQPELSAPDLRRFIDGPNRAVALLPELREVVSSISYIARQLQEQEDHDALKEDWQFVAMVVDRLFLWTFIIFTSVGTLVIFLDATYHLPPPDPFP
Sequence of α1nAChR (Q07001 22-517): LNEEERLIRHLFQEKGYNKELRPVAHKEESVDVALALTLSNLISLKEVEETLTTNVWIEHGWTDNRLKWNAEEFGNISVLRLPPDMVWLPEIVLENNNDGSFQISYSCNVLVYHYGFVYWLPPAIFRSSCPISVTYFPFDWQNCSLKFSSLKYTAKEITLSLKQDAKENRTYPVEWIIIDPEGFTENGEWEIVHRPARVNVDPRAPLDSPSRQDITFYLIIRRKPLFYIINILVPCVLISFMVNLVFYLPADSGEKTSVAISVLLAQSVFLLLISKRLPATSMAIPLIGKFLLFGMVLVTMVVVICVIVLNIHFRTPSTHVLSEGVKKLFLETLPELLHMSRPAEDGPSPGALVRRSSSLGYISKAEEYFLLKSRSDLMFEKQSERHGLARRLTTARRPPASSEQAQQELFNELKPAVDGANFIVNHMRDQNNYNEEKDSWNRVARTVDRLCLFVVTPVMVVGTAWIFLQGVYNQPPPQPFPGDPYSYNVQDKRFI

Sequence of Ls-AChBP (P58154 20-229 limits assumed): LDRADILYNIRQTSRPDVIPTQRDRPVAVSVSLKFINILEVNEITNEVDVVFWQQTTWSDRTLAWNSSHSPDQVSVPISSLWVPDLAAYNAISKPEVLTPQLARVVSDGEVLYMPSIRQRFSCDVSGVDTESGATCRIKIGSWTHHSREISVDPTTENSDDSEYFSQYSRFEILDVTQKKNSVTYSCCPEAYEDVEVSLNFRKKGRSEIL

## CC(=O)OCC[N+](C)(C)C [ACh, acetylcholine]
[1]
  Kd: 0.823 µM
[2]
  pKd: 5.5

## C[N+]1(C)[C@@H]2CC[C@H]1C[C@@H](OC(=O)C(CO)c1ccccc1)C2 (stereo partly drawn) [Compound 10]
[3]
  Kd: 0.882 ± 0.117 µM
[4]
  selectivity of antagonism among LGIC-CNiFERs: nonselective antagonists
[5]
  interference with the binding of [3H] epibatidine to BPs (screening): significant interference
[6]
  Kd: 2.01 ± 0.137 µM

## CCN1C[C@]2(COC(=O)c3ccccc3N3C(=O)C[C@H](C)C3=O)CC[C@H](OC)[C@@]34[C@@H]5C[C@H]6[C@H](OC)[C@@H]5[C@](O)(C[C@@H]6OC)[C@@](O)([C@@H](OC)[C@H]23)[C@@H]14 [MLA, methyllycaconitine]
[4]; 1 µM
  percent inhibition, α7nAChR: 79 ± 6.4%
[7]
  inhibition of current response elicited by 100 μM ACh: completely inhibited

## CN1[C@@H]2CC[C@H]1C[C@@H](OC(=O)c1c[nH]c3ccccc13)C2 [Tropocitron]
[8]
  percent inhibition, 5-HT3A: 96 ± 0.6%

## C[N+](C)(C)CCOC(N)=O [carbamylcholine]
[1]; isothermal titration calorimetry using Ls-AChBP
  Kd: 7.58 µM

## CN1CCC[C@H]1c1cccnc1 [nicotine]
[2]
  pKd: 7.2

## α-Bungarotoxin
[9]
  percent inhibition, α1nAChR: 94 ± 0.8%
